The record followed here is patent US20030055106A1, “Therapeutic uses of peroxometallic compounds” (priority 1999, published 2003).

For test [1], the system named is Th1 and Th2 cytokine genes in spleen. Description: Cytokine gene expression in spleen (multi-probe RNase protection assay). It counts as in vivo, BALB/c mice. The settings on record: naive mice; up to 24 hr; in comparison to PBS. The text has this: FIG. 8: In vivo bpV(phen)-induced cytokine gene expression in spleen of BALB/c mice. Expression of Th1 (IFN-(, IL-2, IL-12) and Th2 (IL-4 and IL-10) cytokines were monitored in spleen of BALB/c mice in response to bpv(phen) over a 24-hr period. Expression of cytokine genes has been monitored using a multi-probe RNase protection assay as described in more detail below. Results obtained are representative of 3 experiments performed independently.

The subject of test [2] is endothelial cells having invaded Matrigel plugs. Description: In vivo s.c. Matrigel plug assay. Set-up: species or system C57B1/6N female mice. Conditions: daily i.p. administration of 10 μg/mice or higher doses, day 1 to day 7. The procedure: FIG. 5: bpV(phen) inhibits angiogenesis in vivo in the s.c. Matrigel assay. Graph showing the results of an experiment expressed as the number of cells that migrated in three microscopic fields for each s.c. Matrigel plug. Fields were equidistant from the edge of the plug. […] (2) Four mice that received daily administration of 10 μg bpV(phen) during the 7 days post-implantation. (3) Four mice that received daily administration of 50 μg bpV(phen) during the 7 days post-implantation. (4) Four mice that received daily administration of 100 μg bpv(phen) during the 7 days post-implantation. (5) Four mice that received daily administration of PBS during the 7 days post-implantation.
This assay was performed as previously described (107). Briefly, Matrigel (liquid at 4° C.) was mixed with 200 ng/ml ECGS and injected s.c. into four C57B1/6N female mice (1 ml/mice). After injection, the Matrigel polymerized to form a plug. After 7 days, the animals were sacrified, and the Matrigel plugs were removed and fixed in 10% neutral-buffered formalin solution (Sigma Chemical Co.) and embedded in paraffin. Histological sections were stained with Masson's trichrome and angiogenesis was scored by counting the number of cells that migrated in three microscopic fields for each s.c. Matrigel plug.
Experiments were performed to determine whether bpV(phen) inhibits vessel formation in vivo. […]

As to `O.O.O.OO.OO.[K+].[OH-].[V].c1cnc2c(c1)ccc1cccnc12` [bpV(phen), potassium bisperoxo(1,10-phenanthroline)oxovanadate], in test [1], the “cytokine gene expression in spleen (IL-12, IL-10, IL-2 and IFN)” value is recorded as “significantly up-regulated”. The “number of endothelial cells having invaded Matrigel plugs” value in test [2] is on record as “decreased by half”.
